Tests used:
BaF3 = test: cells; conditions: Mus musculus
[1] = Cytotoxicity against human NCI-H838 cells harboring wild type EGFR at 500 nM; format: toxicity, cell-based; conditions: read-out: INH
[2] = system: Epidermal growth factor receptor (Homo sapiens), P00533 [L858R,T790M,C797S]; conditions: dose 500.0 nM
Chain of Epidermal growth factor receptor (Homo sapiens), P00533 [L858R,T790M,C797S] (P00533 whole entry T790M/C797S/L858R): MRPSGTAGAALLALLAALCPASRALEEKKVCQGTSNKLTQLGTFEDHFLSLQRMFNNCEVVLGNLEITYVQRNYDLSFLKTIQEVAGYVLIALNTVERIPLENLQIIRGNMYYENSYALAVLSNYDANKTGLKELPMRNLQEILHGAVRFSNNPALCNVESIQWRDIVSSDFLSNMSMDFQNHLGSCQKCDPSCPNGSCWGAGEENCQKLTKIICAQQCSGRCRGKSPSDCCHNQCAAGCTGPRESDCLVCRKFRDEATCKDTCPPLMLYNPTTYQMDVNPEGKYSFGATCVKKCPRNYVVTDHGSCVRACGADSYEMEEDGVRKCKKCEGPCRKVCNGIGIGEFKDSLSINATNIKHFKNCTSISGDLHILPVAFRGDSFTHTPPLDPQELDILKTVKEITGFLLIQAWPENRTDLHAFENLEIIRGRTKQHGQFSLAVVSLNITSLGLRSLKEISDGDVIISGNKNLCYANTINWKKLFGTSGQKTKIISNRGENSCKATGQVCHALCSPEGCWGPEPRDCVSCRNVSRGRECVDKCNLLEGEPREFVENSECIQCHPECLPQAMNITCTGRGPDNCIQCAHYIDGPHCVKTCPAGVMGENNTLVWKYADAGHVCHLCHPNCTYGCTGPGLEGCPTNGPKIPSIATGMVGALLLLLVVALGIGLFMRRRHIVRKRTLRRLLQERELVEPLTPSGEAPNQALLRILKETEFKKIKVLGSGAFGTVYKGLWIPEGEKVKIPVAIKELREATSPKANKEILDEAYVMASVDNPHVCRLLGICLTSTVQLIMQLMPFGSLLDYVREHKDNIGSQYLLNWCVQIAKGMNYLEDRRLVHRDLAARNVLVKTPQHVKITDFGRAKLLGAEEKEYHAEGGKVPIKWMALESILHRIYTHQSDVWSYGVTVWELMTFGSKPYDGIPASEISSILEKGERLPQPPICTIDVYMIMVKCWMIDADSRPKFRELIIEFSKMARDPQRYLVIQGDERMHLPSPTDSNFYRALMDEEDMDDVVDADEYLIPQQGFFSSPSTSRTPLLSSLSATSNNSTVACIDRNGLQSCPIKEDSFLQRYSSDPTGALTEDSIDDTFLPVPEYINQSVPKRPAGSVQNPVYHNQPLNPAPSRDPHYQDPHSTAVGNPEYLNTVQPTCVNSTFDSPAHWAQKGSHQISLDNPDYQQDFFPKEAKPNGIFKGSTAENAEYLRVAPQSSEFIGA

Compound	IC50 (BaF3)	cytotoxicity at 0.5 µM [1]	inhibition [2]
COc1cc(N2CCC(N3CCN(C)CC3)CC2)c(C)cc1Nc1nccc(-n2cc(CNC(C)CO)c(-c3ccccc3)n2)n1 (stereo not drawn)	143 nM	25.6%	
COc1cc(N2CCC(N3CCN(C)CC3)CC2)c(C)cc1Nc1nccc(-n2cc(CN[C@H](C)CO)c(-c3ccccc3)n2)n1	260 nM	17.1%	
COc1cc(N2CCC(N3CCN(C)CC3)CC2)c(C)cc1Nc1nccc(-n2cc(CNC(CO)C(C)C)c(-c3ccccc3)n2)n1 (stereo not drawn)	292 nM	31.8%	
COc1cc(N2CCC(N3CCN(C)CC3)CC2)c(C)cc1Nc1nccc(-n2cc(CN[C@@H](C)CO)c(-c3ccccc3)n2)n1	106 nM	14.9%	
COc1cc(N2CCC(N3CCN(C)CC3)CC2)c(C)cc1Nc1nccc(-n2cc(CNCCO)c(-c3ccccc3)n2)n1	485 nM	33.2%	
COc1cc(N2CCC(N3CCN(C)CC3)CC2)ccc1Nc1ncc(Cl)c(Nc2ccccc2P(C)(C)=O)n1 [BRIGATINIB]	542 nM	92.4%	84.6%

— ChEMBL document CHEMBL5335804, “Design, synthesis and biological evaluation of 2-phenylaminopyrimidine derivatives as EGFR inhibitors” (Bioorg Med Chem Lett, 2024)
